Columns and labels:
[1] = system: velvetleaf; assay: Test A postemergence; format: in vivo, Abutilon theophrasti
In short: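 Growth medium: loam soil blended with sand. Preemergence treatment used a directed soil spray right after planting; postemergence treatment targeted seedlings at one to two leaves (2–10 cm height). Response was judged by eye relative to untreated plants about 10 days later on a 0–100 control scale.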

[2] = system: blackgrass; assay: Test C preemergence; format: in vivo, Alopecurus myosuroides; conditions: preemergence
In short: (§1)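 Scores of 0 (no effect) to 100 (complete control) were assigned by eye after 13–15 days, comparing treated pots with controls. Soil-applied (preemergence) treatments went onto seeds in loam and sand; foliar (postemergence) treatments onto 1- to 4-leaf plants in peat medium.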

[3] = system: wheat; assay: Test C preemergence; format: in vivo, Triticum aestivum; conditions: preemergence
In short: as §1

[4] = system: galium; assay: Test C preemergence; format: in vivo, Galium aparine; conditions: preemergence
In short: as §1

[5] = system: corn; assay: Test C preemergence; format: in vivo, Zea mays; conditions: preemergence
In short: as §1

[6] = system: pigweed; assay: Test C preemergence; format: in vivo, Amaranthus retroflexus; conditions: preemergence
In short: as §1

[7] = system: ragweed; assay: Test C preemergence; format: in vivo, Ambrosia elation; conditions: preemergence
In short: as §1

[8] = system: soybean; assay: Test C preemergence; format: in vivo, Glycine max; conditions: preemergence
In short: as §1

[9] = system: oilseed rape; assay: Test C preemergence; format: in vivo, Brassica napus; conditions: preemergence
In short: as §1

[10] = system: waterhemp; assay: Test C preemergence; format: in vivo, Amaranthus rudis; conditions: preemergence
In short: as §1

[11] = system: wheat; assay: Test C postemergence; format: in vivo, Triticum aestivum; conditions: postemergence
In short: as §1

[12] = system: foxtail, giant; assay: Test C postemergence; format: in vivo, Setaria faberii
In short: as §1

[13] = system: johnsongrass; assay: Test C postemergence; format: in vivo, Sorghum halepense
In short: as §1

[14] = system: lambsquarters; assay: Test C postemergence; format: in vivo, Chenopodium album
In short: as §1

[15] = system: chickweed; assay: Test C postemergence; format: in vivo, Stellaria media
In short: as §1

[16] = 31 g ai/ha, visual rating, scale 0 to 100 (0 no effect, 100 complete control), 13 to 15 days
[17] = 62 g ai/ha, scale 0 to 100 (0 no effect, 100 complete control), 13 to 15 days
[18] = 125 g ai/ha, 13 to 15 days, scale 0 to 100, 0 = no effect, 100 = complete control
[19] = 250 g ai/ha, scale 0 to 100, 0 is no effect, 100 is complete control
[20] = Postemergence, 31 g ai/ha, visually evaluated after 13 to 15 days
[21] = postemergence, 62 g ai/ha, scale 0 to 100
[22] = postemergence, 250 g ai/ha, scale 0 to 100 (0 no effect, 100 complete control)
[23] = postemergence, 125 g ai/ha, scale 0 to 100, 0 no effect, 100 complete control

CCCNC(=O)c1cc(CCF)n(Cc2ccnc(C(F)(F)F)c2)n1 [Compound 177]
Velvetleaf plant response rating ([1]; Postemergence, 500 g ai/ha, 0 to 100 scale (0 no effect, 100 complete control)): 100
Velvetleaf plant response rating ([1]; postemergence, 125 g ai/ha, about 10 days, visual rating on 0 to 100 scale (0 no effect, 100 complete control)): 40
Blackgrass plant response rating [2, 16]: 50
Blackgrass plant response rating [2, 17]: 85
Plant response rating, Blackgrass [2, 18]: 90
Blackgrass plant response rating [2, 19]: 90
Wheat plant response rating [3, 16]: 10
Wheat plant response rating [3, 17]: 10
Plant response rating, Wheat [3, 18]: 50
Wheat plant response rating [3, 19]: 90
Galium plant response rating [4, 16]: 100
Galium plant response rating [4, 17]: 100
Plant response rating, Galium [4, 18]: 100
Galium plant response rating [4, 19]: 100
Corn plant response rating [5, 16]: 5
Corn plant response rating [5, 17]: 40
Plant response rating, Corn [5, 18]: 90
Corn plant response rating [5, 19]: 98
Pigweed plant response rating [6, 16]: 100
Pigweed plant response rating [6, 17]: 100
Plant response rating, Pigweed [6, 18]: 100
Pigweed plant response rating [6, 19]: 100
Ragweed plant response rating [7, 16]: 75
Ragweed plant response rating [7, 17]: 85
Plant response rating, Ragweed [7, 18]: 98
Ragweed plant response rating [7, 19]: 98
Soybean plant response rating [8, 16]: 40
Soybean plant response rating [8, 17]: 70
Plant response rating, Soybean [8, 18]: 95
Soybean plant response rating [8, 19]: 98
Oilseed Rape plant response rating [9, 16]: 70
Oilseed Rape plant response rating [9, 17]: 60
Plant response rating, Oilseed Rape [9, 18]: 90
Oilseed Rape plant response rating [9, 19]: 95
Waterhemp plant response rating [10, 16]: 98
Waterhemp plant response rating [10, 17]: 98
Plant response rating, Waterhemp [10, 18]: 98
Waterhemp plant response rating [10, 19]: 100
Plant response rating, Wheat ([11]; 250 g ai/ha, scale 0 to 100 (0 no effect, 100 complete control)): 20
Wheat plant response rating ([11]; scale 0 to 100): 15
Plant response rating (scale of 0 to 100 where 0 is no effect and 100 is complete control), Foxtail, Giant [12, 20]: 5
Foxtail, Giant plant response rating [12, 21]: 10
Plant response rating, Foxtail, Giant [12, 22]: 45
Plant response rating, Foxtail, Giant [12, 23]: 30
Plant response rating (scale of 0 to 100 where 0 is no effect and 100 is complete control), Johnsongrass [13, 20]: 0
Johnsongrass plant response rating [13, 21]: 0
Plant response rating, Johnsongrass [13, 22]: 5
Plant response rating, Johnsongrass [13, 23]: 5
Plant response rating (scale of 0 to 100 where 0 is no effect and 100 is complete control), Lambsquarters [14, 20]: 65
Lambsquarters plant response rating [14, 21]: 50
Plant response rating, Lambsquarters [14, 22]: 85
Plant response rating, Lambsquarters [14, 23]: 75
Plant response rating (scale of 0 to 100 where 0 is no effect and 100 is complete control), Chickweed [15, 20]: 60
Chickweed plant response rating [15, 21]: 75
Plant response rating, Chickweed [15, 22]: 90
Plant response rating, Chickweed [15, 23]: 70

Reference: patent US20150105252A1, “SUBSTITUTED PYRAZOLES AS HERBICIDES” (E I DU PONT DE NEMOURS AND COMPANY, priority 2013, published 2015)
